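1) Cells in 96-well plates. 2) Compound, 48 h, 5 concentrations. 3) Linear interpolation between surrounding doses. 4) Unreached endpoint = highest concentration. The concentration for full growth arrest is given as TGI.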
Experiments:
Experiment in all cases: growth of human tumour cells (NCI), 48 h
NCI-H226 lung = test system: NCI-H226 lung
OVCAR-8 ovarian = test system: OVCAR-8 ovarian
XF 498 CNS = test system: XF 498 CNS
786-0 renal = test system: 786-0 renal
OVCAR-5 ovarian = test system: OVCAR-5 ovarian
MOLT-4 leukemia = test system: MOLT-4 leukemia
KM12 colon = test system: KM12 colon
K-562 leukemia = test system: K-562 leukemia
HOP-62 NSCLC = test system: HOP-62 NSCLC
SF-539 CNS = test system: SF-539 CNS
SK-MEL-28 melanoma = test system: SK-MEL-28 melanoma
NCI-H522 lung = test system: NCI-H522 lung
SK-MEL-5 melanoma = test system: SK-MEL-5 melanoma
UACC-62 melanoma = test system: UACC-62 melanoma
CCRF-CEM leukemia = test system: CCRF-CEM leukemia
SF-268 CNS = test system: SF-268 CNS
OVCAR-4 ovarian = test system: OVCAR-4 ovarian
M19-MEL melanoma = test system: M19-MEL melanoma
KM20L2 colon = test system: KM20L2 colon
UO-31 renal = test system: UO-31 renal
RPMI-8226 leukemia = test system: RPMI-8226 leukemia
UACC-257 melanoma = test system: UACC-257 melanoma
SNB-75 CNS = test system: SNB-75 CNS
CAKI-1 renal = test system: CAKI-1 renal
HOP-18 NSCLC = test system: HOP-18 NSCLC
SK-MEL-2 melanoma = test system: SK-MEL-2 melanoma
RXF 393 renal = test system: RXF 393 renal
M14 melanoma = test system: M14 melanoma
SK-OV-3 ovarian = test system: SK-OV-3 ovarian
NCI-H460 lung = test system: NCI-H460 lung
DMS 273 small cell lung = test system: DMS 273 small cell lung
NCI-H23 lung = test system: NCI-H23 lung
HL-60(TB) leukemia = test system: HL-60(TB) leukemia
ACHN renal = test system: ACHN renal
SNB-78 CNS = test system: SNB-78 CNS
HCT-15 colon = test system: HCT-15 colon
A549 NSCLC = test system: A549 NSCLC
SF-295 CNS = test system: SF-295 CNS
DLD-1 colon = test system: DLD-1 colon
A498 renal = test system: A498 renal
HCT-116 colon = test system: HCT-116 colon
HOP-92 NSCLC = test system: HOP-92 NSCLC
SNB-19 CNS = test system: SNB-19 CNS
SW-620 colon = test system: SW-620 colon
EKVX NSCLC = test system: EKVX NSCLC
U251 CNS = test system: U251 CNS
SN12C renal = test system: SN12C renal
LXFL 529 NSCLC = test system: LXFL 529 NSCLC
OVCAR-3 ovarian = test system: OVCAR-3 ovarian
SR leukemia = test system: SR leukemia
MALME-3M melanoma = test system: MALME-3M melanoma
COLO 205 colon = test system: COLO 205 colon
TK-10 renal = test system: TK-10 renal
HT29 colon = test system: HT29 colon
DMS 114 small cell lung = test system: DMS 114 small cell lung
IGROV1 ovarian = test system: IGROV1 ovarian
LOX IMVI melanoma = test system: LOX IMVI melanoma
RXF-631 renal = test system: RXF-631 renal

## CCCc1ccc(N=Cc2cc(OC)c(OC)c(OC)c2)cc1
NCI-H226 lung
  TGI: > 100 µM
OVCAR-8 ovarian
  TGI: > 100 µM
XF 498 CNS
  TGI: > 100 µM
786-0 renal
  TGI: > 100 µM
OVCAR-5 ovarian
  TGI: > 100 µM
MOLT-4 leukemia
  TGI: > 100 µM
KM12 colon
  TGI: > 100 µM
K-562 leukemia
  TGI: > 72.6 µM
HOP-62 NSCLC
  TGI: > 100 µM
SF-539 CNS
  TGI: > 100 µM
SK-MEL-28 melanoma
  TGI: > 100 µM
NCI-H522 lung
  TGI: > 100 µM
SK-MEL-5 melanoma
  TGI: > 100 µM
UACC-62 melanoma
  TGI: > 100 µM
CCRF-CEM leukemia
  TGI: > 100 µM
SF-268 CNS
  TGI: > 100 µM
OVCAR-4 ovarian
  TGI: > 100 µM
M19-MEL melanoma
  TGI: > 100 µM
KM20L2 colon
  TGI: > 100 µM
UO-31 renal
  TGI: > 100 µM
RPMI-8226 leukemia
  TGI: > 65.8 µM
UACC-257 melanoma
  TGI: > 100 µM
SNB-75 CNS
  TGI: > 100 µM
CAKI-1 renal
  TGI: > 100 µM
HOP-18 NSCLC
  TGI: > 100 µM
SK-MEL-2 melanoma
  TGI: > 100 µM
RXF 393 renal
  TGI: > 100 µM
M14 melanoma
  TGI: > 100 µM
SK-OV-3 ovarian
  TGI: > 100 µM
NCI-H460 lung
  TGI: > 100 µM
DMS 273 small cell lung
  TGI: > 100 µM
NCI-H23 lung
  TGI: > 100 µM
HL-60(TB) leukemia
  TGI: > 67.5 µM
ACHN renal
  TGI: > 100 µM
SNB-78 CNS
  TGI: > 100 µM
HCT-15 colon
  TGI: > 54.6 µM
A549 NSCLC
  TGI: > 100 µM
SF-295 CNS
  TGI: > 100 µM
DLD-1 colon
  TGI: > 100 µM
A498 renal
  TGI: > 100 µM
HCT-116 colon
  TGI: > 100 µM
HOP-92 NSCLC
  TGI: > 100 µM
SNB-19 CNS
  TGI: > 100 µM
SW-620 colon
  TGI: > 100 µM
EKVX NSCLC
  TGI: > 100 µM
U251 CNS
  TGI: > 100 µM
SN12C renal
  TGI: > 100 µM
LXFL 529 NSCLC
  TGI: > 100 µM
OVCAR-3 ovarian
  TGI: > 100 µM
SR leukemia
  TGI: > 100 µM
MALME-3M melanoma
  TGI: > 100 µM
COLO 205 colon
  TGI: > 31.6 µM
TK-10 renal
  TGI: > 100 µM
HT29 colon
  TGI: > 100 µM
DMS 114 small cell lung
  TGI: > 60.6 µM
IGROV1 ovarian
  TGI: > 100 µM
LOX IMVI melanoma
  TGI: > 100 µM

## COc1cccc2c1C1=CC(=O)CCC1C(C)(C)O2 (stereo not drawn)
NCI-H226 lung
  TGI: > 100 µM
RXF-631 renal
  TGI: > 100 µM
OVCAR-8 ovarian
  TGI: > 100 µM
786-0 renal
  TGI: > 100 µM
OVCAR-5 ovarian
  TGI: > 100 µM
MOLT-4 leukemia
  TGI: > 100 µM
KM12 colon
  TGI: > 100 µM
K-562 leukemia
  TGI: > 100 µM
HOP-62 NSCLC
  TGI: > 100 µM
SF-539 CNS
  TGI: > 100 µM
SK-MEL-28 melanoma
  TGI: > 100 µM
NCI-H522 lung
  TGI: > 100 µM
SK-MEL-5 melanoma
  TGI: > 100 µM
UACC-62 melanoma
  TGI: > 100 µM
CCRF-CEM leukemia
  TGI: > 100 µM
SF-268 CNS
  TGI: > 100 µM
OVCAR-4 ovarian
  TGI: > 100 µM
M19-MEL melanoma
  TGI: > 100 µM
KM20L2 colon
  TGI: > 100 µM
UO-31 renal
  TGI: > 100 µM
RPMI-8226 leukemia
  TGI: 50.4 µM
UACC-257 melanoma
  TGI: > 100 µM
SNB-75 CNS
  TGI: > 100 µM
CAKI-1 renal
  TGI: > 100 µM
HOP-18 NSCLC
  TGI: > 100 µM
SK-MEL-2 melanoma
  TGI: > 100 µM
RXF 393 renal
  TGI: > 100 µM
M14 melanoma
  TGI: > 100 µM
SK-OV-3 ovarian
  TGI: > 100 µM
NCI-H460 lung
  TGI: > 100 µM
DMS 273 small cell lung
  TGI: > 100 µM
NCI-H23 lung
  TGI: > 100 µM
HL-60(TB) leukemia
  TGI: > 100 µM
ACHN renal
  TGI: > 100 µM
SNB-78 CNS
  TGI: > 100 µM
HCT-15 colon
  TGI: > 100 µM
A549 NSCLC
  TGI: > 100 µM
SF-295 CNS
  TGI: > 100 µM
DLD-1 colon
  TGI: > 100 µM
A498 renal
  TGI: > 100 µM
HCT-116 colon
  TGI: > 100 µM
HOP-92 NSCLC
  TGI: > 100 µM
SNB-19 CNS
  TGI: > 100 µM
SW-620 colon
  TGI: 27.3 µM
EKVX NSCLC
  TGI: > 100 µM
U251 CNS
  TGI: > 100 µM
SN12C renal
  TGI: > 100 µM
LXFL 529 NSCLC
  TGI: > 100 µM
OVCAR-3 ovarian
  TGI: > 100 µM
MALME-3M melanoma
  TGI: > 100 µM
COLO 205 colon
  TGI: > 100 µM
TK-10 renal
  TGI: > 100 µM
HT29 colon
  TGI: > 100 µM
DMS 114 small cell lung
  TGI: 61.5 µM
IGROV1 ovarian
  TGI: > 100 µM
LOX IMVI melanoma
  TGI: > 100 µM

— PubChem BioAssay (NCI)
